Data set [1] has as its target T1, Human Neuropeptide Y2 Receptor (Homo sapiens, UniProt P49146).
T1 construct: purchased CHEMICON HTS066M
T1 sequence (P49146 1-381): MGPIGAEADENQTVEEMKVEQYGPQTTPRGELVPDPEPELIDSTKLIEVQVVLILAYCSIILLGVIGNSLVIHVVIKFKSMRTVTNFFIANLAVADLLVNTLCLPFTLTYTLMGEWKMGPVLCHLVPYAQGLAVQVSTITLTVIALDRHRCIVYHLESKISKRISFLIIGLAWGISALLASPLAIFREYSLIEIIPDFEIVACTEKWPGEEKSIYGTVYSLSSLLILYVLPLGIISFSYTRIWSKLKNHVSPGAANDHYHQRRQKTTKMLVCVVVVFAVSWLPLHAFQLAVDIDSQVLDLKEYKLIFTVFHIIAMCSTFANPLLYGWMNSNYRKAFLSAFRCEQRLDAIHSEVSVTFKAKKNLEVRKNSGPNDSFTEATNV
In words: Activity (RLB binding) after incubation in solutions at different pH values. On the procedure:
The filtration RLB assay was carried out in 96-well plates in a final volume of 100 μl per well. Freeze-dried test peptides were dissolved in 100% dimethyl sulfoxide (DMSO) to stock solutions of 1 mM and serial dilutions were performed in assay buffer (50 mM HEPES, 5 mM MgCl2, 1 mM CaCl2, pH 7.4) containing 0.2% ovalbumin. […] Next, 80 μL membranes (HTS066M, ChemiSCREEN™ Human Neuropeptide Y2 Receptor Membrane Preparation, CHEMICON) were added to each well to give a final protein concentration of 0.5 μg/well. The plates were sealed and incubated at room temperature for 2 hours in a plate shaker set at 400 rpm. The incubation was stopped by vacuum filtration onto 0.5% polyethylene amine (PE) presoaked GF/C filters using a 96-well FilterMate™ harvester (Perkin Elmer) followed by four washes with 300 μl/well ice-cold wash buffer (50 mM HEPES, 500 mM NaCl, pH7.4). Filter plates were then dried for 60 min at room temperature and the bottom of the plates was sealed with backing tape UniFilter-96. Finally, 50 μl/well scintillation counter cocktail (Microscint20, Packard) was added and the radioactivity was counted in the Packard TopCount NXT scintillation counter. IC50 values (the half maximal inhibitory concentration of the agonist) were calculated by nonlinear regression analysis of sigmoidal dose-response curves.
The peptide was (partially) dissolved by shaking the filter unit horizontally at approx. 400 rpm for 2 hours at room temperature. The sample was filtered to remove any insoluble particles.

Data set [2] concerns the target T2, human NPY4 receptor (hY4R) (Homo sapiens, UniProt P50391).
T2 construct: expressed in transfected cells; host or cells: CHO-K1
Kind of data set: HTRF cAMP Gi assay, hY4R. It is filed as cell-based. The settings on record: CHO-K1 cells. On the technique in general: TR-FRET usually uses a lanthanide donor and a delayed reading to cut background.
Method: Briefly, the production of intracellular cAMP will generate a competition between unlabeled cAMP and exogenously added d2-cAMP for anti-cAMP antibodies conjugated to cryptate. CHO-K1 cells stably expressing the human NPY1, NPY2, NPY4 and NPY5 receptors were used with the cells brought to life from a frozen stock immediately before assay performance. 2000 cells per well were applied for all four NPY receptor subtype assays. A 384-well format was used applying a total volume of 20 μl using 5 μl cells, 2.5 μl peptide agonist, 2.5 μl forskolin and 5 μl of each of the fluorophores. […] Concentration-response evaluation of compounds was performed with 11 concentrations of agonist peptides (covering 3 decades). EC50 values were calculated by nonlinear regression using sigmoid concentration-response with variable slope.

Data set [3] addresses T3, human NPY1 receptor (hY1R) (Homo sapiens, UniProt P25929).
T3 construct: expressed in transfected cells; host or cells: CHO-K1
T3 sequence (P25929 1-384): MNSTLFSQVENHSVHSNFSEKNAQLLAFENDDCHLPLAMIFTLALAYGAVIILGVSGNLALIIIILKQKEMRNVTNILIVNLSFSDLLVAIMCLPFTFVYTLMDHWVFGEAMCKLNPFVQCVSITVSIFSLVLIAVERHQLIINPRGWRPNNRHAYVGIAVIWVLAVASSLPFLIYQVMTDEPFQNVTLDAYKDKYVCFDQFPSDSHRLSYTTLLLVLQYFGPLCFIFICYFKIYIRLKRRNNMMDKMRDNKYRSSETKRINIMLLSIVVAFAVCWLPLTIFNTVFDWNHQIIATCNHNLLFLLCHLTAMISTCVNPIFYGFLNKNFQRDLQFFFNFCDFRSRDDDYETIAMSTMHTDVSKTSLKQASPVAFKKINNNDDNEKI
In words: HTRF cAMP Gi assay, hY1R. It is filed as cell-based. As to conditions: CHO-K1 cells.

Data set [4] addresses T4, human NPY5 receptor (hY5R) (Homo sapiens, UniProt Q15761).
T4 sequence (Q15761 1-445): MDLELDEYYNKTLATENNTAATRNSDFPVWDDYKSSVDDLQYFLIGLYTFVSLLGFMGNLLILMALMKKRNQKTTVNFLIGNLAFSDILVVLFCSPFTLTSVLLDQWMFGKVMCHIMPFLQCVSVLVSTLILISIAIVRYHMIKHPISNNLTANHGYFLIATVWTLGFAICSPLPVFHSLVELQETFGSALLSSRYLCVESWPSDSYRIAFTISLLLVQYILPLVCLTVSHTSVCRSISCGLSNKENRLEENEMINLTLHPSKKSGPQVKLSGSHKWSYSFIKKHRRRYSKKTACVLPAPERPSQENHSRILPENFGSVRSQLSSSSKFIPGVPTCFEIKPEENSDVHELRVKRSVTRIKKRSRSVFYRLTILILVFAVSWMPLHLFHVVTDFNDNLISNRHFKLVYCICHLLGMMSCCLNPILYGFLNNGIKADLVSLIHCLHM
Kind of data set: HTRF cAMP Gi assay, hY5R.

The next data set can be described thus: Solubility determination. The settings on record: for Sol6: pH 6; for Sol7: pH 7. The gist of the method: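 First, TFA-salt peptide was added to 0.1 M sodium diphosphate (pH 6.4 or 7.0) to 10 mg/ml and shaken 2 h at room temperature. Next, insoluble material was filtered off. Finally, filtrate and control, each 1 mg/ml in 50% acetonitrile, were compared by reversed-phase chromatography.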

Data set [5] concerns the target T1, Human Neuropeptide Y2 Receptor. Kind of data set: Radioligand binding competition assay (RLB). The procedure, abridged:
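Receptor membranes, 0.5 μg/well; buffer 50 mM HEPES/5 mM MgCl2/1 mM CaCl2/0.2% ovalbumin, pH 7.4; 2 h RT, shaking. GF/C filtration, cold HEPES/500 mM NaCl wash, scintillation count. IC50 by nonlinear regression.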

In data set [6] the target is T5, human NPY2 receptor (hY2R) (Homo sapiens, UniProt P49146).
T5 sequence (P49146 1-381): T1 sequence (P49146 1-381)
In words: HTRF cAMP Gi assay, hY2R.

Where [7] appears, read: apparent Ki of filtrate after incubation at pH7.1-7.2, assumed 10 mg/ml, read-out: RLB 7 (pH7.1-7.2).
The mark [8] stands for this setting: apparent Ki of filtrate after incubation at pH8.1-8.2, assumed 10 mg/ml, read-out: RLB 8 (pH8.1-8.2).
Where [9] appears, read: Table 3, 125I-PYY(1-36) competition, read-out: Ki.

SMILES strings stand for the structures.

T2 sequence (P50391 whole entry): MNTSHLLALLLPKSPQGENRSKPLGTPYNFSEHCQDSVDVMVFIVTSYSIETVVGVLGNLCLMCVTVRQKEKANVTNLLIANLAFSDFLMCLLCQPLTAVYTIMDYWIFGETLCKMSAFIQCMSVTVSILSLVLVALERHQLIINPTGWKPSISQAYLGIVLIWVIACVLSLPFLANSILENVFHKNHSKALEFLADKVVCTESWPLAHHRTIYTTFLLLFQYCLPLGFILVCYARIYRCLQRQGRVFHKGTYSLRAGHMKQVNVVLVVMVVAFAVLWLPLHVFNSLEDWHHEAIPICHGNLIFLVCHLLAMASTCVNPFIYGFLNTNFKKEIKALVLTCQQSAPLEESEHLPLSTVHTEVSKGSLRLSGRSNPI

As usually defined, the EC50 is the concentration at which the effect is half-maximal. A lower EC50 goes with greater potency. `CC[C@H](C)[C@H](NC(=O)[C@H](Cc1ccc(O)cc1)NC(=O)[C@H](Cc1ccc(O)cc1)NC(=O)[C@H](CCCNC(=N)N)NC(=O)[C@H](CCC(N)=O)NC(=O)[C@@H](NC(=O)[C@H](CCC(=O)O)NC(=O)[C@H](CCC(=O)O)NC(=O)[C@@H]1CCCN1C(=O)[C@H](CO)NC(=O)[C@H](C)NC(=O)[C@H](CC(=O)O)NC(=O)[C@H](C)NC(=O)[C@H](CCC(=O)O)NC(=O)[C@@H]1CCCN1C(=O)[C@H](CCCCNC(=O)CCCCCNC(=O)CC[C@H](NC(=O)CCCCCCCCCCCCCCCCC(=O)O)C(=O)O)NC(=O)[C@H](CCC(=O)O)NC(=O)[C@@H]1CCCN1C(=O)[C@H](C)NC(=O)CC(C)C)[C@@H](C)CC)C(=O)N[C@@H](C)C(=O)N[C@@H](CC(C)C)C(=O)N[C@@H](CCCNC(=N)N)C(=O)N[C@@H](Cc1c[nH]cn1)C(=O)N[C@@H](Cc1ccc(O)cc1)C(=O)N[C@@H](Cc1ccc(O)cc1)C(=O)N[C@@H](CC(N)=O)C(=O)N[C@@H](Cc1c[nH]c2ccccc12)C(=O)N[C@@H](CC(C)C)C(=O)N[C@H](C(=O)N[C@@H](CCCNC(=N)N)C(=O)N[C@@H](CCC(N)=O)C(=O)N[C@@H](CCCNC(=N)N)C(=O)N[C@@H](Cc1ccc(O)cc1)C(N)=O)[C@@H](C)O` [Compound 40, N{alpha-4}-(3-methylbutanoyl)-N{epsilon-7}-(6-[(4S)-4-carboxy-4-(17-carboxyheptadecanamido)butanamido]hexanoyl)[4A,7K,9E,10A,17I,18Q,22I,23A,28Y,30W,31L]-hPYY(4-36)]: the values for the Ki in data set [1] (setting [7]) and in data set [1] (setting [8]) were 7.3 nM and 3.8 nM, respectively. The EC50 in data set [2], in data set [3] and in data set [4] was over 5000 nM throughout. Moreover, in the data set “Solubility determination”, the “Sol6” value was found to be 8.5 mg/mL. The “Sol7” value in the data set “Solubility determination” came to 8.2 mg/mL.

`CC(C)CC(=O)N[C@@H](C)C(=O)N1CCC[C@H]1C(=O)N[C@@H](CCC(=O)O)C(=O)N[C@@H](CCCCNC(=O)CCCCCNC(=O)CC[C@H](NC(=O)CCCCCCCCCCCCCCCCC(=O)O)C(=O)O)C(=O)N1CCC[C@H]1C(=O)N[C@@H](CCC(=O)O)C(=O)N[C@@H](C)C(=O)N[C@@H](CC(=O)O)C(=O)N[C@@H](C)C(=O)N[C@@H](CO)C(=O)N1CCC[C@H]1C(=O)N[C@@H](CCC(=O)O)C(=O)N[C@@H](CCC(=O)O)C(=O)N[C@@H](CC(C)C)C(=O)N[C@@H](CCC(N)=O)C(=O)N[C@@H](CCCNC(=N)N)C(=O)N[C@@H](Cc1ccc(O)cc1)C(=O)N[C@@H](Cc1ccc(O)cc1)C(=O)N[C@H](C(=O)N[C@@H](C)C(=O)N[C@@H](CC(C)C)C(=O)N[C@@H](CCCNC(=N)N)C(=O)N[C@@H](Cc1c[nH]cn1)C(=O)N[C@@H](Cc1ccc(O)cc1)C(=O)N[C@@H](Cc1ccc(O)cc1)C(=O)N[C@@H](CC(N)=O)C(=O)N[C@@H](Cc1c[nH]c2ccccc12)C(=O)N[C@@H](CC(C)C)C(=O)N[C@H](C(=O)N[C@@H](CCCNC(=N)N)C(=O)N[C@@H](CCC(N)=O)C(=O)N[C@@H](CCCNC(=N)N)C(=O)N[C@@H](Cc1ccc(O)cc1)C(N)=O)[C@@H](C)O)C(C)C` [Compound 163, N{alpha-4}-(3-methylbutanoyl)-N{epsilon-7}-(6-[(4S)-4-carboxy-4-(17-carboxyheptadecanamido)butanamido]hexanoyl)-[4A,7K,9E,10A,18Q,22V,23A,28Y,30W,31L]-hPYY(4-36)]: the Ki in data set [1] (setting [8]) stood at 4.9 nM; in data set [5] (setting [9]), 0.67 nM. Further, the EC50 in data set [2] is over 5000 nM; in data set [3] it was over 5000 nM; in data set [4], over 5000 nM; in data set [6], 0.13 nM. In the data set “Solubility determination”, the “Sol6” value was 8.9 mg/mL. In addition, the “Sol7” value in the data set “Solubility determination” was 9.2 mg/mL.

Turning to `CC[C@H](C)[C@H](NC(=O)[C@H](CCC(=O)O)NC(=O)[C@H](CCC(=O)O)NC(=O)[C@@H]1CCCN1C(=O)[C@@H](NC(=O)[C@H](C)NC(=O)[C@H](CC(=O)O)NC(=O)[C@H](CCC(=O)O)NC(=O)[C@H](CCC(=O)O)NC(=O)[C@@H]1CCCN1C(=O)[C@H](CCCCNC(=O)CCCCCNC(=O)CC[C@H](NC(=O)CCCCCCCCCCCCCCCCC(=O)O)C(=O)O)NC(=O)[C@H](CCC(=O)O)NC(=O)[C@@H]1CCCN1C(=O)[C@H](C)NC(=O)CC(C)C)[C@@H](C)O)C(=O)N[C@@H](CCC(N)=O)C(=O)N[C@@H](CCCNC(=N)N)C(=O)N[C@@H](Cc1ccc(O)cc1)C(=O)N[C@@H](Cc1ccc(O)cc1)C(=O)N[C@H](C(=O)N[C@@H](CO)C(=O)N[C@@H](CC(C)C)C(=O)N[C@@H](CCCNC(=N)N)C(=O)N[C@@H](Cc1c[nH]cn1)C(=O)N[C@@H](Cc1ccc(O)cc1)C(=O)N[C@@H](Cc1ccc(O)cc1)C(=O)N[C@@H](CC(N)=O)C(=O)N[C@@H](Cc1c[nH]c2ccccc12)C(=O)N[C@@H](CC(C)C)C(=O)N[C@H](C(=O)N[C@@H](CCCNC(=N)N)C(=O)N[C@@H](CCC(N)=O)C(=O)N[C@@H](CCCNC(=N)N)C(=O)N[C@@H](Cc1ccc(O)cc1)C(N)=O)[C@@H](C)O)C(C)C` [Compound 176, N{alpha-4}-(3-methylbutanoyl)-N{epsilon-7}-(6-[(4S)-4-carboxy-4-(17-carboxyheptadecanamido)butanamido]hexanoyl)-[4A,7K,9E,13T,17I,18Q,22V,28Y,30W,31L]-hPYY(4-36)], the Ki in data set [1] (apparent Ki of filtrate after incubation at pH6.1-6.2, assumed 10 mg/ml, read-out: RLB 6 (pH6.1-6.2)) was 3.9 nM; in data set [1] (setting [7]) it was 4 nM; in data set [1] (setting [8]) it was 5.7 nM; in data set [5] (setting [9]), 1.48 nM; in data set [5] (Table 8, DMSO stock, read-out: hY2R RLB Ki (nM) DMSO), 8.7 nM. Also, the EC50 in data set [2], in data set [3] and in data set [4] was over 5000 nM in each case. For the same compound, the “Sol6” value in the data set “Solubility determination” was found to be 9.4 mg/mL. Moreover, in the data set “Solubility determination”, the “Sol7” value worked out at 9.3 mg/mL.

For the origin of these results see patent US12391737B2, “Soluble NPY2 receptor agonists” (Boehringer Ingelheim International GmbH, priority 2020, dated 2025).
